This is an account of results in patent publication US10233186B2, “Inhibitors of activin receptor-like kinase” (BLUEPRINT MEDICINES CORPORATION, priority 2016, dated 2019).

Experiment [1] concerns the target T1, human ALK2 R206H (Homo sapiens, UniProt Q04771, R206H).
T1 construct: expressed in transfected cells; host or cells: HEK293 (ATCC CRL1573), lentivirus transduction, blasticidin selection
T1 sequence (Q04771 21-509 R206H): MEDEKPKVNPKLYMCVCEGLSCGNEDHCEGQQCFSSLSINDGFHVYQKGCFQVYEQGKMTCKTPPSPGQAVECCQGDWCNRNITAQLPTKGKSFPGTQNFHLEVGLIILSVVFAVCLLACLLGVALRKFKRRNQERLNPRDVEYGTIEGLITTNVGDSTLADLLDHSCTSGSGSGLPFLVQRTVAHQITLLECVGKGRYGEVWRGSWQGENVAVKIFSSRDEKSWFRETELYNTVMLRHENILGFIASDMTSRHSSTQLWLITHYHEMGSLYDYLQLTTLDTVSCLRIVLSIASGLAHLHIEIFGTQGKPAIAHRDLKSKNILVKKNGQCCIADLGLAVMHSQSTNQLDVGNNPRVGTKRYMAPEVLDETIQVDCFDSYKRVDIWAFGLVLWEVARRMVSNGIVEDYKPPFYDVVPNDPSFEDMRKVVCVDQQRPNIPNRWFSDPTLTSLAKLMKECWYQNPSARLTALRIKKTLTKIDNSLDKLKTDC
Kind of experiment: Cell-based ALK2-R206H cell activity assay (Smad1-Ser463/Ser465 phosphorylation by AlphaLISA in HEK293-ALK2-R206H cells). Particulars: read-out: Cell Line (Cell Assay IC50). Put shortly:
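Stable HEK293 cells expressing C-terminally FLAG-tagged human ALK2 R206H (lentiviral, blasticidin-selected) were treated with compounds in 10-point, 3-fold dilutions from 10 μM or 1 μM top, in duplicate. Smad1 Ser463/Ser465 phosphorylation was read by AlphaLISA.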

In experiment [2] the target is T2, ALK2 R206H (GST-tagged mutant ALK2) (Homo sapiens, UniProt Q04771, R206H).
T2 construct: purchased Carna Bioscience or ThermoFisher 09-148 or PV6232
T2 sequence (Q04771 21-509 R206H): T1 sequence (Q04771 21-509 R206H)
Kind of experiment: ALK binding assay (LANTHASCREEN TR-FRET competitive binding, displacement of Kinase Tracer 178). Particulars: ALK2 R206H, LANTHASCREEN TR-FRET competitive binding; read-out: Binding Assay (IC50).

Regarding `CC(C)NC(=O)N1CCN(c2ccnn3cc(-c4ccc(N5CCN(C(C)C)CC5)cc4)cc23)CC1` [Compound 348], the IC50 was less than 100 nM in experiment [1] and less than 10 nM in experiment [2].

As for `O=C(C1CC1)N1CCN(c2ccnn3cc(-c4ccc(OCC5CNC5)cc4)cc23)CC1` [Compound 134], the values for the IC50 in experiment [1] and in experiment [2] were 100 to 500 nM and less than 10 nM, respectively.

As for `COC1(c2ccc(-c3cc4c(N5CCN(C(=O)[C@H]6C[C@H](C#N)C6)CC5)ccnn4c3)nc2)CCN([C@@H](C)CO)CC1` [Compound 741], the IC50 is less than 100 nM in experiment [1] and less than 10 nM in experiment [2].

For `CCCNC(=O)N1CCN(c2ccnn3cc(-c4ccc([C@@H]5CCCN(C(C)C)C5)cc4)cc23)CC1` [Compound 580], the IC50 in experiment [1] was less than 100 nM; in experiment [2] it was less than 10 nM.

In the case of `CC1OCC1OC(=O)N1CCN(c2ccnn3cc(-c4ccc([C@@H]5CCCN(C(C)C)C5)cc4)cc23)CC1` (stereo partly drawn) [Compound 828], the IC50 is 100 to 500 nM in experiment [1] and less than 10 nM in experiment [2].

As for `CC(C)N1CCC[C@H](c2ccc(-c3cc4c(N5CCN(C(=O)[C@H]6CC[C@H](C#N)CC6)CC5)ccnn4c3)cc2)C1` [Compound 435], the IC50 in experiment [1] is less than 100 nM; in experiment [2] it was less than 10 nM.

For the molecule `CCNC(=O)N1CCN(c2ccnn3cc(-c4ccc([C@@]5(O)CCCN(C(C)C)C5)cc4)cc23)CC1` [Compound 592], the IC50 in experiment [1] is less than 100 nM; in experiment [2], less than 10 nM.

On to `COC[C@H](C)N1CCC(OC)(c2ccc(-c3cc4c(N5CCN(C(=O)[C@H]6C[C@H](C#N)C6)CC5)ccnn4c3)cc2)CC1` [Compound 745], for which the IC50 was less than 100 nM in experiment [1] and less than 10 nM in experiment [2].

For the molecule `CCOC(=O)N1CCN(c2ccnn3cc(-c4ccc([C@]5(OC)CCN(C(C)C)C5)cc4)cc23)CC1` [Compound 604], the values for the IC50 in experiment [1] and in experiment [2] were less than 100 nM and less than 10 nM, respectively.

For `CCN1CC[C@H](c2ccc(-c3cc4c(N5CCN(C(=O)C6CC6)CC5)ccnn4c3)cc2)C(F)C1` (stereo partly drawn) [Compound 279], the IC50 in experiment [1] was 100 to 500 nM; in experiment [2], 10 to 50 nM.

In the case of `CC(C)NC(=O)N1CCN(c2ccnn3cc(-c4ccc([C@]5(O)CCN(C(C)C)C5)cc4)cc23)CC1` [Compound 596], the IC50 was 100 to 500 nM in experiment [1] and less than 10 nM in experiment [2].

As to `COC1(c2ccc(-c3cc4c(N5CCN(C(=O)NC(C)C)CC5)ccnn4c3)cc2)CCN([C@@H](C)COC(F)F)CC1` [Compound 892], the IC50 in experiment [1] was less than 100 nM; in experiment [2], less than 10 nM.

For the molecule `CCN1C[C@@H]2C[C@H]1CN2c1ccc(-c2cc3c(N4CCN(C(=O)C5CC5)CC4)ccnn3c2)cc1` [Compound 242], the IC50 was 100 to 500 nM in experiment [1] and less than 10 nM in experiment [2].

For `COC1(c2ccc(-c3cc4c(N5CCN(C(=O)NC(C)C)CC5)ccnn4c3)cc2F)CCN(C(C)C)CC1` [Compound 720], the IC50 in experiment [1] is less than 100 nM; in experiment [2] it was less than 10 nM.

As for `CC(C)N1CCC[C@@](O)(c2ccc(-c3cc4c(N5CCN(C(=O)C6CC6)CC5)ccnn4c3)cc2)C1` [Compound 325], the IC50 was less than 100 nM in experiment [1] and less than 10 nM in experiment [2].

As for `CCOC(=O)N1CCN(c2ccnn3cc(-c4ccc([C@H]5CCN(CC)C5)cc4)cc23)CC1` [Compound 181], the IC50 in experiment [1] is less than 100 nM; in experiment [2], less than 10 nM.

`CC(C)N1CCC(CO)(c2ccc(-c3cc4c(N5CCN(C(=O)C6CC6)CC5)ccnn4c3)cc2)CC1` [Compound 811]: the IC50 in experiment [1] is less than 100 nM; in experiment [2], less than 10 nM.

With `CO[C@@]1(c2ccc(-c3cc4c(N5CCN(C(=O)OC6COC6)CC5)ccnn4c3)nc2)CCCNC1` [Compound 801], the IC50 was less than 100 nM in experiment [1] and less than 10 nM in experiment [2].

For the molecule `CCN1CC[C@@H](c2ccc(-c3cc4c(N5CCN(C(=O)C6CC6)CC5)ccnn4c3)cc2)C1` [Compound 148], the IC50 in experiment [1] is less than 100 nM; in experiment [2] it was less than 10 nM.

Consider `CC(C)N1CCC[C@H]1c1ccc(-c2cc3c(N4CCN(C(=O)C5CC5)CC4)ccnn3c2)cc1` [Compound 210], for which the IC50 in experiment [1] was less than 100 nM; in experiment [2] it was less than 10 nM.

As for `COC1(c2ccc(-c3cc4c(N5CCN(C(=O)C6CCC(C#N)CC6)CC5)ccnn4c3)cc2)CN(C(C)C)C1` (stereo not drawn) [Compound 729], the IC50 in experiment [1] is less than 100 nM; in experiment [2], less than 10 nM.

For `CC(C)N1CCC[C@@H](c2ccc(-c3cc4c(N5CCN(C(=O)[C@H]6C[C@H](C#N)C6)CC5)ccnn4c3)nc2)C1` [Compound 653], the IC50 was less than 100 nM in experiment [1] and less than 10 nM in experiment [2].

Take `CC(C)N1CC[C@@H](c2ccc(-c3cc4c(N5CCN(C(=O)[C@H]6C[C@H](C#N)C6)CC5)ccnn4c3)cc2)C1` [Compound 364]: the IC50 is less than 100 nM in experiment [1] and less than 10 nM in experiment [2].

Turning to `CCCNC(=O)N1CCN(c2ccnn3cc(-c4ccc([C@H]5CCN(C(C)C)C5)cc4)cc23)CC1` [Compound 532], the IC50 in experiment [1] is less than 100 nM; in experiment [2], less than 10 nM.

On to `O=C(C1CC1)N1CCN(c2ccnn3cc(-c4ccc(C5CCNC5)cc4)cc23)CC1` (stereo not drawn) [Compound 112], for which the values for the IC50 in experiment [1] and in experiment [2] were 100 to 500 nM and less than 10 nM, respectively.

Turning to `CC(C)N1CCC(c2ccc(-c3cc4c(N5CCN(C(=O)OC6CC6)CC5)ccnn4c3)cc2)CC1` [Compound 795], the IC50 in experiment [1] is less than 100 nM; in experiment [2], less than 10 nM.

In the case of `O=C(C1CC(F)(F)C1)N1CCN(c2ccnn3cc(-c4ccc(N5CCNCC5)cc4)cc23)CC1` [Compound 296], the figures for the 50% inhibitory concentration (IC50) in experiment [1] and in experiment [2] were 100 to 500 nM and less than 10 nM, respectively.

As to `CCNC(=O)N1CCN(c2ccnn3cc(-c4ccc([C@@]5(OCC)CCCN(C(C)C)C5)cc4)cc23)CC1` [Compound 674], the IC50 in experiment [1] is less than 100 nM; in experiment [2] it was less than 10 nM.

Turning to `CCOC1(c2ccc(-c3cc4c(N5CCN(C(=O)NC(C)C)CC5)ccnn4c3)cc2)CCN(C2COC2)CC1` [Compound 856], the figures for the IC50 in experiment [1] and in experiment [2] were less than 100 nM and less than 10 nM, respectively.

Consider `O=C(C1CC1)N1CCN(c2ccnn3cc(-c4ccc([C@@]5(F)CCCNC5)cc4)cc23)CC1` [Compound 178], for which the IC50 is less than 100 nM in experiment [1] and less than 10 nM in experiment [2].

As for `O=C(C1CC1)N1CCN(c2ccnn3cc(-c4ccc(N5CCN6CCCCC6C5)cc4)cc23)CC1` (stereo not drawn) [Compound 307], the IC50 was 100 to 500 nM in experiment [1] and less than 10 nM in experiment [2].

Consider `CC(C)N1CCC(c2ccc(-c3cc4c(N5CCN(C(=O)NCC6COC6)CC5)ccnn4c3)cc2)CC1` [Compound 661], for which the IC50 in experiment [1] is 100 to 500 nM; in experiment [2], less than 10 nM.

As to `CCN1CCN(c2ccc(-c3cc4c(N5CCN(C(=O)[C@H]6C[C@H](O)C6)CC5)ccnn4c3)cc2)CC1` [Compound 336], the IC50 is less than 100 nM in experiment [1] and less than 10 nM in experiment [2].

With `CCN1CC(COc2ccc(-c3cc4c(N5CCN(C(=O)C6CC6)CC5)ccnn4c3)cc2)C1` [Compound 217], the IC50 in experiment [1] was 100 to 500 nM; in experiment [2] it was less than 10 nM.

As to `CC(C)N1CC[C@H](c2ccc(-c3cc4c(N5CCN(C(=O)C6CC6)CC5)ccnn4c3)nc2)C1` [Compound 486], the IC50 in experiment [1] is less than 100 nM; in experiment [2], less than 10 nM.

In the case of `CC(C)N1CC[C@](O)(c2ccc(-c3cc4c(N5CCN(C(=O)C6CC6)CC5)ccnn4c3)cc2)C1` [Compound 522], the results for the IC50 in experiment [1] and in experiment [2] were less than 100 nM and less than 10 nM, respectively.

On to `CCN1CCN(c2ccc(-c3cc4c(N5CCN(C(=O)[C@H]6C[C@@H](O)C6)CC5)ccnn4c3)cc2)CC1` [Compound 335], for which the values for the IC50 in experiment [1] and in experiment [2] were greater than 500 nM and greater than 50 nM, respectively.

On to `CC(C)NC(=O)N1CCN(c2ccnn3cc(-c4ccc([C@@]5(C)CN(C(C)C)CCN5C)cc4)cc23)CC1` [Compound 672], for which the IC50 was less than 100 nM in experiment [1] and less than 10 nM in experiment [2].

As to `CCN1CCC(c2ccc(-c3cc4c(N5CCN(C(=O)C6CCC6)CC5)ccnn4c3)cc2)CC1` [Compound 250], the IC50 in experiment [1] is less than 100 nM; in experiment [2], less than 10 nM.

For `CC(C)N1CCN(C)[C@H](c2ccc(-c3cc4c(N5CCN(C(=O)C6CC6)CC5)ccnn4c3)cc2)C1` [Compound 568], the results for the IC50 in experiment [1] and in experiment [2] were less than 100 nM and less than 10 nM, respectively.

Consider `CCNC(=O)N1CCN(c2ccnn3cc(-c4ccc([C@]5(OCC)CCCN(C(C)C)C5)cc4)cc23)CC1` [Compound 673], for which the half-maximal inhibitory concentration (IC50) in experiment [1] is less than 100 nM; in experiment [2], less than 10 nM.

As for `CCOC1(c2ccc(-c3cc4c(N5CCN(C(=O)OC6COC6)CC5)ccnn4c3)nc2)CCN(C2CC2)CC1` [Compound 855], the IC50 is less than 100 nM in experiment [1] and less than 10 nM in experiment [2].

For the molecule `CC(C)N1CCC(c2ccc(-c3cc4c(N5CCN(C(=O)NCC(C)(C)C)CC5)ccnn4c3)cc2)CC1` [Compound 664], the values for the IC50 in experiment [1] and in experiment [2] were 100 to 500 nM and less than 10 nM, respectively.

`CCN1CCN(c2ccc(-c3cc4c(N5CCN(C(=O)N6CCCC6)CC5)ccnn4c3)cc2)CC1` [Compound 327]: the IC50 in experiment [1] lay in the range of 100 to 500 nM; in experiment [2], 10 to 50 nM.

Regarding `CC(C)N1CCC[C@@H](c2ccc(-c3cc4c(N5CCN(C(=O)C6CC6)CC5)ccnn4c3)cc2)C1` [Compound 248], the values for the IC50 in experiment [1] and in experiment [2] were less than 100 nM and less than 10 nM, respectively.
